Laboratory results from US20110054247A1, “METHODS FOR CLONING FERRETS AND TRANSGENIC FERRET MODELS FOR DISEASES” (UNIVERSITY OF IOWA RESEARCH FOUNDATION, priority 2009, published 2011).

How the values were obtained:
[1] = test system: submucosal glands of CFTR-/- tracheas; assay: Functional measurement of gland secretions in tracheal xenografts; set-up: species or system ferret; conditions: 30 minute stimulation
Description: Functional measurement of gland secretions in tracheal xenografts. Rates of mucous secretion from single submucosal glands were determined on excised CFTR^+/+, CFTR^+/−, and CFTR^−/− tracheal xenografts, as previously described in Joo et al. (2001), with modification to optimize xenograft viability. Xenografts were harvested and placed in minimal essential medium (MEM) with antibiotics, and shipped overnight at 4° C. from the University of Iowa to Stanford University. Tracheal xenografts were open along the posterior trachealis muscle, and dissected tracheal segments were mounted mucosal-side-up in a chamber without removing the cartilage at 4° C. […] Digital images of the spherical mucous bubbles under mineral oil were obtained at 5 minute intervals, based on which the secretory rates for individual glands was calculated using ImageJ software (NIH, MD). […] To confirm that differences in glandular secretory rates between CF and non-CF xenografts were not due to differences in gland size, we performed morphometric analysis on the samples analyzed. […] The unit length of the surface airway basal lamina and the glandular area were measured for each section using Metamorph software. […] On average about 75 photomicrographs were evaluated for each xenograft sample (N=5 for non-CF and N=6 for CF).

[2] = test system: CFTR-/- kits; assay: Oral UDCA therapy of CFTR-/- kits (neonatal clinical care, blood chemistries); type: in vivo, ferret; conditions: Golytely and antibiotics
Description: Neonatal clinical care of CFTR^−/− kits. Two treatment protocols were developed to enhance post-natal survival and reduce the risk of intestinal obstruction caused by MI. Both protocols included administering metronidazole (5 mg/kg in 100 uL of dextrose saline, s.c.) 4× daily beginning at the time of birth, and starving the animals for the first 3 hours after birth and then administering a 150-200 μL Golytely® gavage (Braintree Laboratories Inc.) using a fire polished microloader pipette tip (Eppendorf Inc.) (FIG. 27 for example of gavage tube components). The gavage was repeated every 6 hours up to three times, until meconium was passed. […] When CFTR^−/− kits were weaned at 5 weeks of age, they were fed a slurry of Elecare hydrated solid chow (Marshall Farms) 2× daily, mixed with 1 lipase Unit per 10 gram body weight of Viokase-V (the amount of food eaten with each feeding was recorded for these calculations).
Blood chemistries. […] Mammalian Liver Profile rotors from Abaxis were used, and assessed plasma levels of: alkaline phosphatase (AP), alanine aminotransferase (ALT), bile acids (BA), total bilirubin (TBiI), total cholesterol (CHOL), gamma glutamyl transferase (GGT), and blood urea nitrogen (BUN). […]
For these reasons, it was determined whether oral UDCA therapy of CFTR^−/− kits might normalize liver function and improve nutrition. […]

With `C[N+](C)(C)CCOC(N)=O` [carbachol] the “reduction of fluid secretion from submucosal glands, CFTR-/- versus non-CF tracheas” value ([1]; secretion in response to 1 μM carbachol) was “reduced by half”.
`C[C@H](CCC(=O)O)[C@H]1CC[C@H]2[C@@H]3[C@@H](O)C[C@@H]4C[C@H](O)CC[C@]4(C)[C@H]3CC[C@]12C` [UDCA, ursodeoxycholic acid] was tested, and the “survival of CFTR-/- kits that did not die of MI” value ([2]; 4 of 20 CFTR-/- kits treated with UDCA) was 5 to 9 days and the “number of kits that died of MI” value ([2]; among 20 CFTR-/- kits treated with UDCA) was 16.
In the case of `C=C[C@@]1(C)CC(=O)[C@]2(O)[C@@]3(C)[C@@H](O)CCC(C)(C)[C@@H]3[C@H](O)[C@H](OC(C)=O)[C@@]2(C)O1` [forskolin], the “reduction of fluid secretion from submucosal glands, CFTR-/- versus non-CF tracheas” value ([1]; secretion in response to 3 μM forskolin) is reported as 7.4 fold.
